According to US20170224731A1, “METHOD OF PRODUCING LEUKOCYTES USING PTPN2 INHIBITION FOR ADOPTIVE CELL TRANSFER” (MONASH UNIVERSITY, priority 2014, published 2017):

Tests used:
murine CD8+ T cells = assay: PTPN2 siRNA knock down in splenocytes, CD8+ T cell numbers after α-CD3/α-CD28 stimulation (FIG. 17); assay type: cell-based, C57BL/6 mice; conditions: 30 nM, 100 nM and 300 nM siRNA, α-CD3/α-CD28 (5 μg/ml each) for 48 h, versus GFP siRNA
Method: FIG. 17. Knock down of PTPN2 using siRNAs in murine CD8+ T cells leads to enhanced TCR-mediated T cell responses. Splenocytes (1×10^7) from C57BL/6 mice were transfected overnight with 100 nM GFP siRNA or 30 nM, 100 nM and 300 nM PTPN2 siRNA or 30 nM BLOCK-iT™ Fluorescent Oligo using the Amaxa Mouse T cell Nucleofactor Kit. (A) Transfection efficiency of CD8^+ T cells was monitored with BLOCK-iT™ Fluorescent Oligo (Fluor.Oligo) by flow cytometry. (B) Transfected splenocytes were stimulated with plate-bound α-CD3 (5 μg/ml) and α-CD28 (5 μg/ml) for 48 h and stained with fluorochrome-conjugated α-CD8. CD8^+ T cell numbers were quantified with Calibrite Beads™ by flow cytometry. Results shown are means±SD for the indicated number of replicates.
Ptpn2 was knocked down transiently in primary murine T cells using Ptpn2 ([…], SEQ ID NO: 14); Dharmacon Thermo Scientific, Waltham, Mass.); green fluorescent protein (GFP; CAAGCUGACCCUGAAGUUCdTdT; Dharmacon Thermo Scientific, Waltham, Mass.) siRNA was used as a control. […] T cell numbers were monitored by flow cytometry. For quantification Calibrite Beads (BD Biosciences) were added to the wells before cells were harvested.
Splenocytes (1×10^7) from C57BL/6 mice were transfected overnight with 100 nM GFP siRNA or 30 nM, 100 nM and 300 nM PTPN2 siRNA using the Amaxa Mouse T cell Nucleofactor Kit. […] CD8+ T cell numbers were quantified by flow cytometry. […]

[1] = system: CD8+ naïve (CD62LhiCD44lo) splenic T cells; assay: Activation of naive CD8+ splenic T cells with plate-bound αCD3/CD28, surface markers by flow cytometry (FIG. 11); assay type: cell-based, C57BL/6 mice; conditions: plate-bound αCD3/CD28 for 48 h, versus vehicle
From the text: FIG. 11. […] T cells were stained with fluorochrome-conjugated antibodies to assess CD44, CD62L, IL-2Ra (CD25 subunit) and CD69 surface levels and mean fluorescence intensity (MFI) was monitored by flow cytometry.
T cells were stained with fluorochrome-conjugated antibodies to assess CD44, CD62L, IL-2Rα (CD25 subunit) and CD69 surface levels and mean fluorescence intensity (MFI) was monitored by flow cytometry.

[2] = system: Naive (CD62LhiCD44lo) CD8+ LN T cells; assay: Stimulation of naive CD8+ LN T cells with anti-CD3/anti-CD28 ± PTPN2 inhibitor, MFI by flow cytometry (FIG. 14); assay type: cell-based, C57BL/6 mice; conditions: anti-CD3 (5 μg/ml) and anti-CD28 (5 μg/ml) for 60 h, inhibitor at various concentrations
Method: FIG. 14. […] Naive (CD62LhiCD44lo) CD8+ LN T cells (1×105) from C57BL/6 mice were stimulated with plate-bound anti-CD3 (5μg/ml) and anti-CD28 (5μg/m1) for 60 h±PTPN2 inhibitor at various concentrations. Cells were harvested and stained with fluorochrome-conjugated antibodies for CD44, CD69, CD25 and CD62L and mean fluorescence intensity (MFI) analyzed by flow cytometry. Results shown are means±SD for the indicated number of replicates.
CD8^+CD62L^hiCD44^lo naïve LN T cells (1×10^5/well) were stimulated in 96-well round-bottom plates with plate-bound α-CD3 (5 μg/ml) and a-CD28 (5 μg/ml) for 60 h. PTPN2 inhibitor was added twice daily to the culture. To determine the activation status cells were harvested, stained with fluorochrome-conjugated antibodies against α-CD25, α-CD44, α-CD62L and α-CD69 and analysed by flow cytometry.
In FIG. 14, the results of naive)(CD62L^hiCD44^loCD8+ LN T cells (1×105) from C57BL/6 mice that were stimulated with plate-bound anti-CD3 (5 μg/ml) and anti-CD28 (5 μg/ml) for 60 h±PTPN2 inhibitor (compound 8) at various concentrations is shown. Cells were harvested and stained with fluorochrome-conjugated antibodies for CD44, CD69, CD25 and CD62L and mean fluorescence intensity (MFI) analyzed by flow cytometry. Results shown are means±SD for the indicated number of replicates.

[3] = system: CD8+ human blood lymphocytes; assay: Human PBMC stimulation with plate-bound α-CD3, T cell activation (CD69, CD154) by flow cytometry (FIG. 16); assay type: cell-based; conditions: human PBMCs, plate-bound α-CD3 (1.25 and 2.5 μg/ml) for 24 h
Method: FIG. 16. […] Freshly isolated human PBMCs (2×10^6) were stimulated with plate-bound α-CD3 (1.25 and 2.5 μg/ml) for 24 h. PBMCs were harvested and stained with fluorochrome-conjugated antibodies for CD45RA, CD8, CD69 and CD154 and T cell activation was monitored by flow cytometry. Representative CD8 versus CD69 and CD154 plots (numbers in outlined areas are the relative numbers in the gate) are shown.
(§1) Human blood was collected in 15 ml glass tubes containing Ficoll® gradient (GE Healthcare Life Sciences, Amersham, UK). Peripheral blood […] (PBMCs) were recovered by centrifugation (2200×rpm, 20 min at room temperature). PBMCs were incubated with PTPN2 inhibitor (compound 8) in serum-free RPMI 1640 for two hours at 37° C. and stimulated with plate-bound human α-CD3 (5 μg/ml; clone OKT-3) for 24 h. Cells were harvested and stained with fluorochrome-conjugated antibodies against α-CD8, α-CD45RA, α-CD154 and α-CD69 and analysed by flow cytometry to determine their activation status. To monitor T cells proliferation Calibrite Beads™ were added to the wells before cells were harvested.
Freshly isolated human PBMCs (2×10^6) were stimulated with plate-bound α-CD3 (1.25 and 2.5 μg/ml) for 24 h. PBMCs were harvested and stained with fluorochrome-conjugated antibodies for CD45RA, CD8, CD69 and CD154 and T cell activation was monitored by flow cytometry. […]

[4] = system: CD8+ human blood lymphocytes; assay: Human PBMC stimulation with plate-bound α-CD3, CD8+ T cell proliferation by flow cytometry with Calibrite Beads (FIG. 19); assay type: cell-based; conditions: human PBMCs, plate-bound α-CD3 for 48 h and 72 h, versus vehicle control
Method: FIG. 19. […] Freshly isolated human PBMCs (2×10^6) were stimulated with plate-bound α-CD3 for (A) 48 h and (B) 72 h, in the presence of vehicle control or the PTPN2 inhibitor, compound 8 (as described herein). PBMCs were harvested and stained with fluorochrome-conjugated α-CD8. Calibrite Beads™ were added and T cell proliferation was monitored by flow cytometry. Results shown are means±SD for the indicated number of replicates.
as §1
Freshly isolated human PBMCs (2×10^6) were stimulated with plate-bound α-CD3 for (A) 48 h and (B) 72 h, in the presence of vehicle control or the PTPN2 inhibitor, compound 8 (as described herein). […] Calibrite Beads™ were added and T cell proliferation was monitored by flow cytometry. […]

[5] = system: Her-2 specific CAR T cells; assay: Her-2-specific CAR T cells incubated with 24JK-Her-2 sarcoma cells, secreted IFNγ by ELISA (FIG. 20); assay type: cell-based, mouse; conditions: with 24JK-Her-2, 24JK or medium alone, versus vehicle control
Method: FIG. 20. […] Her-2-specific CAR T cells were incubated with Her-2 expressing 24JK sarcoma cells (24JK-Her-2) or 24JK sarcoma cells (24JK) or medium alone, in the presence of vehicle control or the PTPN2 inhibitor, compound 8 (described herein). T cell activation was assessed by monitoring for secreted IFNγ by ELISA (Mouse IFNγELISA Set, BD OptEIA™) according to the supplier's specifications. Tests were performed in triplicates (±SD).
Her-2-specific CAR T cells were incubated with Her-2 expressing 24JK sarcoma cells (24JK-Her-2) or 24JK sarcoma cells (24JK) or medium alone, in the presence of vehicle control or the PTPN2 inhibitor, compound 8 (described herein). T cell activation was assessed by monitoring for secreted IFNγ by ELISA (Mouse IFNγELISA Set, BD OptEIA™) according to the supplier's specifications. Tests were performed in triplicates (±SD).

Row | Compound | TCR-mediated T cell responses (CD8+ T cell number) (murine CD8+ T cells) | polyclonal CD8+ T cell activation (CD44, CD62L, CD25, CD69 surface levels, MFI) [1] | activated phenotype of naive CD8+ T cells (CD44, CD69, CD25, CD62L MFI) [2] | TCR-mediated T cell activation (CD69, CD154) [3] | TCR-mediated T cell proliferation [4] | tumour-specific activation of Her-2 specific CAR T cells (secreted IFNγ) [5]
1 | AAGCCCAUAUGAUCACAGUCG (listed as RNA, chemistry not given here) [PTPN2 siRNA, siRNA used to knock down Ptpn2 transiently in primary murine T cells (Dharmacon)] | dose response increase in cell number |  |  |  |  | 
2 | CCc1ccc(C(=O)NCCCCC(NC(=O)C(Cc2ccc(C(F)(F)P(=O)(O)O)cc2)NC(=O)C(Cc2ccccc2)NC(=O)COC2CC(C)CCC2C(C)C)C(N)=O)cc1 (stereo not drawn) [compound 8] |  | enhances polyclonal CD8^+ T cell activation ex vivo | stimulates naive CD8+ T cells to an activated phenotype | enhanced TCR-mediated T cell activation | enhanced TCR-mediated T cell proliferation | enhances the tumour-specific activation of Her-2 specific CAR T cells ex vivo
